# Results: patent publication US20230265151A1, “GIP/GLP1 CO-AGONIST COMPOUNDS” (priority 2020, published 2023)
# Like-named read-outs stand apart in the source and are kept apart here.
# Tests used:
# [1] = molecular target: T1, human GLP-1 receptor (hGLP-1R) (Homo sapiens, UniProt P43220); test: [125I]-GLP-1 binding, SPA with membranes of HEK293 cells expressing hGLP-1R
# T1 construct: expressed in transfected cells; crude membranes
# [2] = molecular target: T2, human GIP receptor (hGIPR) (Homo sapiens, UniProt P48546); test: [125I]-GIP binding, SPA with membranes of CHO cells expressing hGIPR
# T2 construct: expressed in transfected cells; crude membranes
# T2 sequence (P48546 22-466): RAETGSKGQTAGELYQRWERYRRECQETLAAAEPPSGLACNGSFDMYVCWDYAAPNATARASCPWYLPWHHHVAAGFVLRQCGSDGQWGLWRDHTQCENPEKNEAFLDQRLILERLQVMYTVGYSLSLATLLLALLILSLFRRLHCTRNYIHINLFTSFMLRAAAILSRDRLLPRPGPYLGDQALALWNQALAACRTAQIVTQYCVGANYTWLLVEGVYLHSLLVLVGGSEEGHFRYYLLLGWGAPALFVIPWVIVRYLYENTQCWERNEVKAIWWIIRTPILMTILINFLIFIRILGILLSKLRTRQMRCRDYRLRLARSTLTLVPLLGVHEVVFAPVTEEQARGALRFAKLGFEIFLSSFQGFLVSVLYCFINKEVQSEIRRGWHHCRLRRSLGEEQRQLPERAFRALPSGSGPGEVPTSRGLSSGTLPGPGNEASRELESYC
# [3] = molecular target: T3, hGIPR (Homo sapiens, UniProt P48546); test: Functional cAMP formation (HTRF) in HEK-293 clonal cells expressing hGIPR, 0.1% bovine casein, without or with 1.0% human serum albumin; format: cell-based; conditions: for EC50: geometric mean
# T3 construct: expressed in transfected cells
# T3 sequence (P48546 22-466): T2 sequence (P48546 22-466)
# In short: (§1)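 Cells were stimulated with peptide for 30 min at 37° C, then lysed in buffer carrying cAMP-d2 and anti-cAMP Eu3+-cryptate for a competitive HTRF read after at least 60 min at room temperature. The 665/620 nm ratio was converted to nM cAMP against a standard curve.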
# [4] = molecular target: T4, hGCGR (Homo sapiens, UniProt P47871); test: Functional cAMP formation (HTRF) in HEK-293 clonal cells expressing hGCGR, 0.1% bovine casein, without or with 1.0% human serum albumin; format: cell-based
# T4 construct: expressed in transfected cells
# In short: as §1
# [5] = molecular target: hGLP-1R (Homo sapiens, UniProt P43220); test: Functional cAMP formation (HTRF) in HEK-293 clonal cells expressing hGLP-1R, 0.1% bovine casein, without or with 1.0% human serum albumin; format: cell-based; design: expressed in transfected cells
# In short: as §1
# [6] = human GLP-1R, geometric mean (SEM, n), read-out: Binding Affinity Ki, nM (SEM, n) hGLP-1R
# [7] = human GIPR, geometric mean (SEM, n), read-out: Binding Affinity Ki, nM (SEM, n) hGIPR
# [8] = HEK293, 0.1% bovine casein and 1.0% human serum albumin, 37° C., percent of maximal response to GIP(1-42)NH2, read-out: hGIPR Emax, % ± SEM
# [9] = 0.1% bovine casein and 1.0% human serum albumin, 37° C., geometric mean, read-out: hGCGR EC50, nM (SEM, n)
# [10] = 0.1% bovine casein and 1.0% human serum albumin, 37° C., geometric mean, read-out: hGLP-1R EC50, nM (SEM, n)
# Chain of hGLP-1R (P43220 24-463): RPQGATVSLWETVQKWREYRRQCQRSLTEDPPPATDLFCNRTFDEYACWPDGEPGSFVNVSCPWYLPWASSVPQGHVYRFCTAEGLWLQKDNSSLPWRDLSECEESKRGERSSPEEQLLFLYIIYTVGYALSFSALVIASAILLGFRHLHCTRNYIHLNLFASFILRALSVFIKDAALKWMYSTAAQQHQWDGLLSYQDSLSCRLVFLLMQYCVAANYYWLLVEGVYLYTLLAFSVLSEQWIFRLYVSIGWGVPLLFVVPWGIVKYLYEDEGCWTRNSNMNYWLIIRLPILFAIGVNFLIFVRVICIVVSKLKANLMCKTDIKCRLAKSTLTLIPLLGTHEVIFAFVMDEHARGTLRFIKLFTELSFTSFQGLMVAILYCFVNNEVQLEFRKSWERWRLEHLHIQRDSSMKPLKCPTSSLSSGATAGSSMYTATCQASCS
# T4 sequence (P47871 26-477): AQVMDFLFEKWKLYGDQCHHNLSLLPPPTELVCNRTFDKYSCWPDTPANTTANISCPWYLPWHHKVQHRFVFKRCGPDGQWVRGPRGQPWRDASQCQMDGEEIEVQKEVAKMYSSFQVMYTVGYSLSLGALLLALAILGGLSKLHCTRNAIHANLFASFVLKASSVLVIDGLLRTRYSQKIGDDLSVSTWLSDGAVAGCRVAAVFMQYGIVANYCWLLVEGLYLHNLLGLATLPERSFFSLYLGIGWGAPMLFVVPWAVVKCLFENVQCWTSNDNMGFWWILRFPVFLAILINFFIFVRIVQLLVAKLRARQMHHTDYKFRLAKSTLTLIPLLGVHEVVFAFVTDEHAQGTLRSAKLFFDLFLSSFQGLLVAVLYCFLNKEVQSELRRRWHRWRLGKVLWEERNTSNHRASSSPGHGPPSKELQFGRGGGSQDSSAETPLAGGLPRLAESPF
smiles,measurement,setting,value
CC[C@H](C)[C@H](NC(=O)[C@H](CC(C)C)NC(=O)[C@](C)(Cc1ccc(O)cc1)NC(=O)[C@@H](CCC(=O)O)NC(=O)[C@@H](NC(=O)[C@H](Cc1ccccc1)NC(=O)[C@H](CCC(=O)O)NC(=O)C(C)(C)NC(=O)[C@H](CCC(N)=O)NC(=O)[C@H](C)NC(=O)[C@H](CCCCNC(=O)COCCOCCNC(=O)COCCOCCNC(=O)CC[C@H](NC(=O)CCCc1ccc(C(C)(C)C)cc1)C(=O)O)NC(=O)[C@H](CCCN)NC(=O)[C@H](CC(=O)O)NC(=O)[C@H](CC(C)C)NC(=O)[C@](C)(CC(C)C)NC(=O)[C@@H](NC(=O)[C@H](CO)NC(=O)[C@H](Cc1ccncc1)NC(=O)[C@H](CC(=O)O)NC(=O)[C@H](CO)NC(=O)[C@@H](NC(=O)[C@](C)(Cc1ccccc1F)NC(=O)[C@@H](NC(=O)CNC(=O)[C@H](CCC(=O)O)NC(=O)C(C)(C)NC(=O)[C@@H](N)Cc1ccc(O)cc1)[C@@H](C)O)[C@@H](C)O)[C@@H](C)CC)[C@@H](C)CC)C(=O)N[C@@H](CCC(=O)O)C(=O)NCC(=O)NCC(=O)N[C@@H](CCCCNC(=O)COCCOCCNC(=O)COCCOCCNC(=O)CC[C@H](NC(=O)CCCc1ccc(C(C)(C)C)cc1)C(=O)O)C(=O)N[C@@H](CO)C(=O)N[C@@H](CO)C(=O)NCC(=O)N[C@@H](C)C(=O)N1CCC[C@H]1C(=O)N1CCC[C@H]1C(=O)N1CCC[C@H]1C(=O)N[C@@H](CO)C(N)=O [Example 4],Ki,[1],0.413 nM
same,Ki,[2],0.0528 nM
same,Emax,"[3]; HEK293, read-out: hGIPR Emax, % ± SEM, 0.1% bovine casein and 1.0% human serum albumin, 37° C., percent of maximal response to GIP(1-42)NH2",88.3 ± 2.17%
same,Emax,"[3]; HEK293, read-out: hGIPR Emax, % ± SEM, percent of maximal response to GIP(1-42)NH2, 37° C., 0.1% bovine casein, arithmetic mean",92.9 ± 0.381%
same,EC50,"[3]; hGIPR EC50, nM (SEM, n), 0.1% bovine casein and 1.0% human serum albumin, 37° C.",0.0296 nM
same,EC50,"[4]; hGCGR EC50, nM (SEM, n), 0.1% bovine casein and 1.0% human serum albumin, 37° C., geometric mean",> 9950 nM
same,EC50,"[4]; hGCGR EC50, nM (SEM, n), cAMP, incubated at 37° C., 0.1% bovine casein (no human serum albumin), geometric mean",> 9950 nM
same,EC50,"[5]; hGLP-1R EC50, nM (SEM, n), 0.1% bovine casein and 1.0% human serum albumin, 37° C., geometric mean",0.584 nM
same,EC50,"[5]; hGLP-1R EC50, nM (SEM, n), cAMP, incubated at 37° C., 0.1% bovine casein (no human serum albumin), geometric mean",0.137 nM
CCCCCCCCCCCC(=O)N[C@@H](CCC(=O)NCCOCCOCC(=O)NCCOCCOCC(=O)NCCCC[C@H](NC(=O)[C@H](CCCN)NC(=O)[C@H](CC(=O)O)NC(=O)[C@H](CC(C)C)NC(=O)[C@](C)(CC(C)C)NC(=O)[C@@H](NC(=O)C(C)(C)NC(=O)[C@H](CCCCNC(=O)COCCOCCNC(=O)COCCOCCNC(=O)CC[C@H](NC(=O)CCCCCCCCCCC)C(=O)O)NC(=O)[C@H](CC(=O)O)NC(=O)[C@H](CO)NC(=O)[C@@H](NC(=O)[C@](C)(Cc1ccccc1F)NC(=O)[C@@H](NC(=O)CNC(=O)[C@H](CCC(=O)O)NC(=O)C(C)(C)NC(=O)[C@@H](N)Cc1ccc(O)cc1)[C@@H](C)O)[C@@H](C)O)[C@@H](C)CC)C(=O)N[C@@H](C)C(=O)N[C@@H](CCC(N)=O)C(=O)NC(C)(C)C(=O)N[C@@H](CCC(=O)O)C(=O)N[C@@H](Cc1ccccc1)C(=O)N[C@H](C(=O)N[C@H](CCC(=O)O)C(=O)N[C@@](C)(Cc1ccc(O)cc1)C(=O)N[C@@H](CC(C)C)C(=O)N[C@H](C(=O)N[C@@H](CCC(=O)O)C(=O)NCC(=O)NCC(=O)N1CCC[C@H]1C(=O)N[C@@H](CO)C(=O)N[C@@H](CO)C(=O)NCC(=O)N[C@@H](C)C(=O)N1CCC[C@H]1C(=O)N1CCC[C@H]1C(=O)N1CCC[C@H]1C(=O)N[C@@H](CO)C(N)=O)[C@@H](C)CC)[C@@H](C)CC)C(=O)O [Example 292],Ki,[1]; [6],0.289 nM
same,Ki,[2]; [7],0.0161 nM
same,Emax,[3]; [8],88.4%
same,EC50,"[3]; cAMP, 37° C., 0.1% bovine casein (no human serum albumin), read-out: hGIPR EC50, nM (SEM, n)",0.0062 nM
same,EC50,[4]; [9],> 9950 nM
same,EC50,"[4]; cAMP, 37° C., 0.1% bovine casein (no human serum albumin), geometric mean, read-out: hGCGR EC50, nM (SEM, n)",> 9950 nM
same,EC50,[5]; [10],4.35 nM
same,EC50,"[5]; cAMP, 37° C., 0.1% bovine casein (no human serum albumin), geometric mean, read-out: hGLP-1R EC50, nM (SEM, n)",0.0758 nM
CC[C@H](C)[C@H](NC(=O)[C@H](CC(C)C)NC(=O)[C@](C)(Cc1ccc(O)cc1)NC(=O)[C@H](CCCCNC(=O)COCCOCCNC(=O)CCCCCNC(=O)CC[C@H](NC(=O)CCCCCCCCCOc1ccc(C(=O)O)cc1)C(=O)O)NC(=O)[C@@H](NC(=O)[C@H](Cc1ccccc1)NC(=O)[C@H](CCCN)NC(=O)C(C)(C)NC(=O)[C@H](CCC(N)=O)NC(=O)[C@H](C)NC(=O)[C@H](CCC(N)=O)NC(=O)[C@H](CCCN)NC(=O)[C@H](CC(=O)O)NC(=O)[C@H](CC(C)C)NC(=O)[C@](C)(CC(C)C)NC(=O)[C@@H](NC(=O)C(C)(C)NC(=O)[C@H](Cc1ccncc1)NC(=O)[C@H](CC(=O)O)NC(=O)[C@H](CO)NC(=O)[C@@H](NC(=O)[C@](C)(Cc1ccccc1F)NC(=O)[C@@H](NC(=O)CNC(=O)[C@H](CCC(=O)O)NC(=O)C(C)(C)NC(=O)[C@@H](N)Cc1ccc(O)cc1)[C@@H](C)O)[C@@H](C)O)[C@@H](C)CC)[C@@H](C)CC)C(=O)N[C@@H](CCCCNC(=O)COCCOCCNC(=O)CCCCCNC(=O)CC[C@H](NC(=O)CCCCCCCCCOc1ccc(C(=O)O)cc1)C(=O)O)C(=O)NCC(=O)NCC(=O)N1CCC[C@H]1C(=O)N[C@@H](CO)C(=O)N[C@@H](CO)C(=O)NCC(=O)N[C@@H](C)C(=O)N1CCC[C@H]1C(=O)N1CCC[C@H]1C(=O)N1CCC[C@H]1C(=O)N[C@@H](CO)C(N)=O [Example 453],Ki,[1],0.123 nM
same,Ki,[2],0.013 nM
same,Emax,"[3]; HEK293, read-out: hGIPR Emax, % ± SEM, cAMP, 37° C., 0.1% bovine casein and 1.0% human serum albumin, percent of maximal response to GIP(1-42)NH2",92%
same,EC50,"[3]; hGIPR EC50, nM (SEM, n), cAMP, 37° C., 0.1% bovine casein (no human serum albumin)",0.0139 nM
same,EC50,"[4]; hGCGR EC50, nM (SEM, n), cAMP, 37° C., 0.1% bovine casein (no human serum albumin), geometric mean",> 9950 nM
same,EC50,"[4]; hGCGR EC50, nM (SEM, n), cAMP, 37° C., 0.1% bovine casein and 1.0% human serum albumin, geometric mean (SEM, n)",> 9950 nM
same,Emax,"[5]; HEK293, read-out: hGLP-1R Emax, % ± SEM, cAMP, 37° C., 0.1% bovine casein, percent of maximal response to GLP-1(7-36)NH2, arithmetic mean",116%
same,EC50,"[5]; hGLP-1R EC50, nM (SEM, n), cAMP, 37° C., 0.1% bovine casein (no human serum albumin), geometric mean",0.2 nM
same,EC50,"[5]; hGLP-1R EC50, nM (SEM, n), cAMP, 37° C., 0.1% bovine casein and 1.0% human serum albumin, geometric mean (SEM, n)",5.47 nM
CCCCCCCCCCCC(=O)N[C@@H](CCC(=O)NCCOCCOCC(=O)NCCOCCOCC(=O)NCCCC[C@H](NC(=O)CNC(=O)CNC(=O)[C@H](CCC(=O)O)NC(=O)[C@@H](NC(=O)[C@H](CC(C)C)NC(=O)[C@](C)(Cc1ccc(O)cc1)NC(=O)[C@@H](CCC(=O)O)NC(=O)[C@@H](NC(=O)[C@H](Cc1ccccc1)NC(=O)[C@H](CCC(=O)O)NC(=O)C(C)(C)NC(=O)[C@H](CCC(N)=O)NC(=O)[C@H](C)NC(=O)[C@H](CCCCNC(=O)COCCOCCNC(=O)COCCOCCNC(=O)CC[C@H](NC(=O)CCCCCCCCCCC)C(=O)O)NC(=O)[C@H](CCCN)NC(=O)[C@H](CC(=O)O)NC(=O)[C@H](CC(C)C)NC(=O)[C@](C)(CC(C)C)NC(=O)[C@@H](NC(=O)[C@H](CO)NC(=O)[C@H](Cc1ccncc1)NC(=O)[C@H](CC(=O)O)NC(=O)[C@H](CO)NC(=O)[C@@H](NC(=O)[C@](C)(Cc1ccccc1F)NC(=O)[C@@H](NC(=O)CNC(=O)[C@H](CCC(=O)O)NC(=O)C(C)(C)NC(=O)[C@@H](N)Cc1ccc(O)cc1)[C@@H](C)O)[C@@H](C)O)[C@@H](C)CC)[C@@H](C)CC)[C@@H](C)CC)C(=O)N[C@@H](CO)C(=O)N[C@@H](CO)C(=O)NCC(=O)N[C@@H](C)C(=O)N1CCC[C@H]1C(=O)N1CCC[C@H]1C(=O)N1CCC[C@H]1C(=O)N[C@@H](CO)C(N)=O)C(=O)O [Example 5],Ki,[1]; [6],0.154 nM
same,Ki,[2]; [7],0.0309 nM
same,EC50,"[3]; 0.1% bovine casein and 1.0% human serum albumin, 37° C., read-out: hGIPR EC50, nM (SEM, n)",0.372 nM
same,Emax,[3]; [8],91.2 ± 3.65%
same,EC50,[4]; [9],> 9950 nM
same,EC50,"[4]; cAMP, incubated at 37° C., 0.1% bovine casein (no human serum albumin), geometric mean, read-out: hGCGR EC50, nM (SEM, n)",> 9150 nM
same,EC50,[5]; [10],4.78 nM
same,EC50,"[5]; cAMP, incubated at 37° C., 0.1% bovine casein (no human serum albumin), geometric mean, read-out: hGLP-1R EC50, nM (SEM, n)",0.057 nM
